# Measurements: ChEMBL document CHEMBL1201862, “PubChem BioAssay data set” (2004)
#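 1) Cells in 96-well plates. 2) Compound, 48 h, 5 concentrations. 3) Linear interpolation between surrounding doses. 4) Unreached endpoint = highest concentration. GI50 marks 50% less growth.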 Active and inactive are the calls of the source. Rule as the data show it: active = GI50 up to about 1.1 µM and inactive = higher.
# Assays:
# Assay in all cases: inhibition of tumour cell growth, NCI panel, 48 h
# ACHN = system: ACHN
# OVCAR-8 = system: OVCAR-8
# KM12 = system: KM12
# SK-MEL-5 = system: SK-MEL-5
# SF-295 = system: SF-295
# OVCAR-3 = system: OVCAR-3
# DMS-273 = system: DMS-273
# HOP-18 = system: HOP-18
# NCI-H460 = system: NCI-H460
# HCT-116 = system: HCT-116
# SW-620 = system: SW-620
# RXF 631 = system: RXF 631
# DLD-1 = system: DLD-1
# M14 = system: M14
# SK-OV-3 = system: SK-OV-3
# RPMI-8226 = system: RPMI-8226
# SF-268 = system: SF-268
# Malme-3M = system: Malme-3M
# EKVX = system: EKVX
# COLO 205 = system: COLO 205
# UACC-257 = system: UACC-257
# SNB-19 = system: SNB-19
# SR = system: SR
# SK-MEL-2 = system: SK-MEL-2
# NCI-H226 = system: NCI-H226
# XF498 = system: XF498
# OVCAR-4 = system: OVCAR-4
# SK-MEL-28 = system: SK-MEL-28
# HOP-92 = system: HOP-92
# SF-539 = system: SF-539
# UO-31 = system: UO-31
# HOP-62 = system: HOP-62
# M19-MEL = system: M19-MEL
# NCI-H23 = system: NCI-H23
# LXFL 529 = system: LXFL 529
# DMS-114 = system: DMS-114
# SNB-75 = system: SNB-75
# MOLT-4 = system: MOLT-4
# A549 = system: A549
# UACC-62 = system: UACC-62
# A498 = system: A498
# CAKI-1 = system: CAKI-1
# HT-29 = system: HT-29
# U-251 = system: U-251
# RXF 393 = system: RXF 393
# TK-10 = system: TK-10
# 786-0 = system: 786-0
# LOX IMVI = system: LOX IMVI
# SN12C = system: SN12C
# NCI-H522 = system: NCI-H522
# SNB-78 = system: SNB-78
# OVCAR-5 = system: OVCAR-5
# IGROV-1 = system: IGROV-1
# K562 = system: K562
# CCRF-CEM = system: CCRF-CEM
# HCC 2998 = system: HCC 2998
# KM-20L2 = system: KM-20L2
# HCT-15 = system: HCT-15
# HL-60 = system: HL-60
structure (smiles),measurement,setting,value
CC1=C(/C=C/C2=CC(=C\C(=O)O)/CC(C3=C(C)CCCC3(C)C)C2)C(C)(C)CCC1 (centres undefined),GI50,ACHN,10.4 µM (inactive)
same,GI50,OVCAR-8,14.7 µM (inactive)
same,GI50,KM12,11.9 µM (inactive)
same,GI50,SK-MEL-5,14.8 µM (inactive)
same,GI50,SF-295,10.1 µM (inactive)
same,GI50,OVCAR-3,14 µM (inactive)
same,GI50,DMS-273,13.9 µM (inactive)
same,GI50,HOP-18,14 µM (inactive)
same,GI50,NCI-H460,13.9 µM (inactive)
same,GI50,HCT-116,15 µM (inactive)
same,GI50,SW-620,15 µM (inactive)
same,GI50,RXF 631,11.1 µM (inactive)
same,GI50,DLD-1,12.2 µM (inactive)
same,GI50,M14,14.8 µM (inactive)
same,GI50,SK-OV-3,13.7 µM (inactive)
same,GI50,RPMI-8226,5.36 µM (inactive)
same,GI50,SF-268,20.9 µM (inactive)
same,GI50,Malme-3M,18.7 µM (inactive)
same,GI50,EKVX,11.3 µM (inactive)
same,GI50,COLO 205,16.4 µM (inactive)
same,GI50,UACC-257,15.6 µM (inactive)
same,GI50,SNB-19,14.3 µM (inactive)
same,GI50,SR,5.65 µM (inactive)
same,GI50,SK-MEL-2,11.3 µM (inactive)
same,GI50,NCI-H226,11.2 µM (inactive)
same,GI50,XF498,14.4 µM (inactive)
same,GI50,OVCAR-4,13.7 µM (inactive)
same,GI50,SK-MEL-28,16 µM (inactive)
same,GI50,HOP-92,11.2 µM (inactive)
same,GI50,SF-539,16.8 µM (inactive)
same,GI50,UO-31,10.7 µM (inactive)
same,GI50,HOP-62,14 µM (inactive)
same,GI50,M19-MEL,15.3 µM (inactive)
same,GI50,NCI-H23,13.9 µM (inactive)
same,GI50,LXFL 529,13.8 µM (inactive)
same,GI50,DMS-114,10.9 µM (inactive)
same,GI50,SNB-75,14.6 µM (inactive)
same,GI50,MOLT-4,3.01 µM (inactive)
same,GI50,A549,4.8 µM (inactive)
same,GI50,UACC-62,10.9 µM (inactive)
same,GI50,A498,15.2 µM (inactive)
same,GI50,CAKI-1,15.9 µM (inactive)
same,GI50,HT-29,13.6 µM (inactive)
same,GI50,U-251,11.1 µM (inactive)
same,GI50,RXF 393,10.8 µM (inactive)
same,GI50,TK-10,13.5 µM (inactive)
same,GI50,786-0,14.8 µM (inactive)
same,GI50,LOX IMVI,13.7 µM (inactive)
same,GI50,SN12C,15.6 µM (inactive)
same,GI50,NCI-H522,10.6 µM (inactive)
same,GI50,SNB-78,20.7 µM (inactive)
same,GI50,OVCAR-5,16.4 µM (inactive)
same,GI50,IGROV-1,13.2 µM (inactive)
N#CC1=C(O)NC(O)=C(C#N)C1c1ccc(C2C(C#N)=C(O)NC(O)=C2C#N)cc1,GI50,K562,53.2 µM (inactive)
same,GI50,ACHN,> 100 µM (inactive)
same,GI50,CCRF-CEM,45.3 µM (inactive)
same,GI50,OVCAR-8,> 100 µM (inactive)
same,GI50,KM12,> 100 µM (inactive)
same,GI50,SK-MEL-5,> 100 µM (inactive)
same,GI50,SF-295,> 100 µM (inactive)
same,GI50,HCC 2998,> 100 µM (inactive)
same,GI50,OVCAR-3,> 100 µM (inactive)
same,GI50,DMS-273,> 100 µM (inactive)
same,GI50,HOP-18,> 100 µM (inactive)
same,GI50,KM-20L2,> 100 µM (inactive)
same,GI50,NCI-H460,46.5 µM (inactive)
same,GI50,HCT-116,> 100 µM (inactive)
same,GI50,SW-620,> 100 µM (inactive)
same,GI50,RXF 631,> 100 µM (inactive)
same,GI50,DLD-1,55.7 µM (inactive)
same,GI50,M14,> 100 µM (inactive)
same,GI50,SK-OV-3,> 100 µM (inactive)
same,GI50,RPMI-8226,> 100 µM (inactive)
same,GI50,SF-268,> 100 µM (inactive)
same,GI50,Malme-3M,> 100 µM (inactive)
same,GI50,EKVX,> 100 µM (inactive)
same,GI50,COLO 205,26.8 µM (inactive)
same,GI50,UACC-257,> 100 µM (inactive)
same,GI50,SNB-19,> 100 µM (inactive)
same,GI50,HCT-15,50.8 µM
same,GI50,SK-MEL-2,> 100 µM (inactive)
same,GI50,NCI-H226,> 100 µM (inactive)
same,GI50,XF498,> 100 µM (inactive)
same,GI50,OVCAR-4,> 100 µM (inactive)
same,GI50,SK-MEL-28,> 100 µM (inactive)
same,GI50,SF-539,> 100 µM (inactive)
same,GI50,UO-31,> 100 µM (inactive)
same,GI50,HOP-62,> 100 µM (inactive)
same,GI50,M19-MEL,67.8 µM (inactive)
same,GI50,NCI-H23,> 100 µM (inactive)
same,GI50,LXFL 529,> 100 µM (inactive)
same,GI50,DMS-114,> 100 µM (inactive)
same,GI50,HL-60,28.3 µM (inactive)
same,GI50,SNB-75,> 100 µM (inactive)
same,GI50,MOLT-4,94.6 µM (inactive)
same,GI50,A549,58.9 µM (inactive)
same,GI50,UACC-62,> 100 µM (inactive)
same,GI50,A498,> 100 µM (inactive)
same,GI50,CAKI-1,> 100 µM (inactive)
same,GI50,HT-29,> 100 µM (inactive)
same,GI50,U-251,> 100 µM (inactive)
same,GI50,RXF 393,> 100 µM (inactive)
same,GI50,TK-10,> 100 µM (inactive)
same,GI50,786-0,> 100 µM (inactive)
same,GI50,LOX IMVI,35.2 µM (inactive)
same,GI50,SN12C,46.5 µM (inactive)
same,GI50,NCI-H522,19.7 µM (inactive)
same,GI50,SNB-78,> 100 µM (inactive)
same,GI50,IGROV-1,> 100 µM (inactive)
